Results as given in patent publication US6986896B2, “Method of treating fungal conditions of the skin” (Bradley Pharmaceuticals, Inc., priority 2002, dated 2006).

Test system: Trychophyton rubrum
Test: Percent kill rate of topical products inoculated with T. rubrum (residual microbial content by serial dilution)
Type: cell-based
Method: Various compositions, e.g. creams, lotions, and gels, containing urea as the sole active ingredient at various concentrations were tested against Trychophyton rubrum, a fungus typically implicated in Moccasin tinea pedis and onychomycosis, and compared to traditional antifungal compositions. A solution of the individual or combination products were inoculated with a known starting concentration of T. rubrum. These solutions were then retested at the specific time intervals to determine the residual microbial content.
The decrease in the residual microbial content calculated as a percentage of its initial starting concentration is the percent kill rate reported in the following table.

NC(N)=O [urea]
antifungal activity (conclusion from the kill rate tests): effective antifungal agent
